Laboratory results: patent US10344048B2, “Certain chemical entities, compositions, and methods” (priority 2011, dated 2019)
Where two headings read alike, the source gives them in different places.

Tested on: A549 cells
Test: Inhibition of cell growth in tumor cells, MTT assay
Assay type: cell-based
Details: Homo sapiens, read-out: A549 cell IC50
Method: Inhibition of cell growth by compounds was measured using MTT assay (Mosmann, T., Journal of Immunological Methods, 1983, 65, 55-63). Tumor cell lines were purchased from ATCC (American Type Culture Collection, Manassas, Va.). All cell lines were maintained in RPMI 1640 (Hyclone) supplemented with 10% fetal bovine serum (FBS, Hyclone), glutamine (2 mM, Hyclone), and antibiotics (penicillin 100 U/mL and streptomycin 50 μg/mL) at 37° C. in a humidified atmosphere of 5% CO2 in air. Taxol (positive control, Sigma) and compounds were dissolved in DMSO (Sigma), and the final concentration of DMSO in the medium was 1%. Tumor cells were plated in 96-well plates at densities from 4000 cells/well of a 96-well plate and allowed to adhere/grow for 24 h. They were then treated with various concentrations of drug for 72 h. […] The number of cells remaining after 72 h was compared to the number of viable cells at the time of compound addition by measuring the absorbance at 570 nm, allowing for the calculation of growth inhibition.
All concentrations of compounds were tested in triplicate and controls were averaged over 4 wells. IC50 was calculated by plotting the concentration of compound vs the percentage of inhibition in treated wells using GraphPad Prism 5. […]

## CC(=O)O[C@H]1C[C@]2(O)[C@@H]3CC[C@@H]4C[C@@H](OC(=O)N5CCNCC5)CC[C@]4(C)[C@H]3CC[C@]2(C)[C@H]1c1ccc(=O)oc1 [(3S,5R,8R,9S,10S,13R,14S,16S,17R)-16-acetoxy-14-hydroxy-10,13-dimethyl-17-(2-oxo-2H-pyran-5-yl)hexadecahydro-1H-cyclopenta[a]phenanthren-3-yl piperazine-1-carboxylate]
A549, 72 h
  IC50: 5.6 nM

## C[C@]12CC[C@H](OC(=O)N3CCNCC3)C[C@H]1CC[C@@H]1[C@@H]2CC[C@]2(C)[C@@H](C3=CC(=O)OC3)CC[C@]12O [(3S,5R,8R,9S,10S,13R,14S,17R)-14-hydroxy-10,13-dimethyl-17-(5-oxo-2,5-dihydrofuran-3-yl)hexadecahydro-1H-cyclopenta[a]phenanthren-3-yl piperazine-1-carboxylate]
A549 cells, MTT assay, 72 h compound exposure
  IC50: 39 nM
